We go through one molecule from patent publication US20050070509A1, “Antimycotic agent” (priority 2001, published 2005).

Common to all, as to type: cell-based
The subject of one assay is Trichlorophyton rubrum. Put plainly: agar incorporation test, growth inhibition of dermatophytes. The procedure: (§1) The activity of the compound according to the invention as agent for inhibiting the growth of various types of yeasts was studied in an agar incorporation test. The nutrient medium used was Sabouraud agar. Several samples of each of the yeast types below, which were isolated directly from diseased patients, were tested: • a) Candida tropicalis • b) Candida albicans • c) Candida glabrata • d) Candida parapsilosis.
(§2) The cultures were supplemented with bis(N-cyclohexyldiazeniumdioxy)copper in such an amount that an end concentration of 25 or 50 ppm was obtained. The cultures were subsequently incubated at 30° C., and the growth of the isolates was assessed after an incubation period of 2 to 5 days.
(§3) The activity of the compound according to the invention for inhibiting the growth of the dermatophyte cultures below was studied in an agar incorporation test as described in Example 1. The active ingredient concentration in the samples amounted to 2.5, 5, 10, 15, 20, 25, 30, 35, 40, 45 and 50 ppm. The isolates were studied after an incubation period of 7, 14 and 21 days, and their growth was determined.

In assay [1] the test system is Scopulariopsis brevicaulis. Described as above. The procedure: as §1, §2, §3
For a further assay, the system named is Microsporum canis. The assay is described as above. The procedure:
as §1, §2, §3

Another assay deals with Epidermophyton floccosum. The assay is described as above. The procedure: as §1, §2, §3
Assay [2] has as its system Trichophyton mentagrophytes. The assay is described as above. The procedure: as §1, §2, §3
The next assay deals with Candida parapsilosis. Put plainly: agar incorporation test, growth inhibition of yeasts. Particulars: Sabouraud agar, 30° C., patient isolates. The procedure: as §1, §2
The subject of another assay is Candida tropicalis. Described as above. Particulars: Sabouraud agar, 30° C., patient isolates. As to the method:
as §1, §2

In the next assay the test system is Candida glabrata. The assay is described as above. Particulars: Sabouraud agar, 30° C., patient isolates. The procedure:
as §1, §2

The test system of the next assay is Candida albicans. The assay is described as above. To be noted: Sabouraud agar, 30° C., patient isolates. The procedure: as §1, §2
Setting [3] is: active ingredient 25 ppm, incubation 2 and 5 days.
Where [4] appears, read: active ingredient 50 ppm, incubation 2 to 5 days.

For `O=NN([O-])C1CCCCC1.O=NN([O-])C1CCCCC1.[Cu+2]` [bis(N-cyclohexyldiazeniumdioxy)copper], the “Effective active ingredient concentration” value was 15 ppm in the assay on Trichlorophyton rubrum (incubation period 7 days); 15 ppm with Trichlorophyton rubrum (incubation period 14 days); 15 ppm with Trichlorophyton rubrum (incubation period 21 days); 25 ppm in [1] (incubation period 7 days); 35 ppm in assay [1] (incubation period 14 days); 40 ppm in assay [1] (incubation period 21 days). Moreover, the “Effective active ingredient concentration” value is recorded as “≦10 ppm” in the assay on Microsporum canis (incubation period 7 days); 15 ppm in the assay on Microsporum canis (incubation period 14 days); 15 ppm in the assay on Microsporum canis (incubation period 21 days); 15 ppm in the assay on Epidermophyton floccosum (incubation period 7 days); 20 ppm in the assay with Epidermophyton floccosum (incubation period 14 days); 20 ppm with Epidermophyton floccosum (incubation period 21 days). For the same molecule, the “Effective active ingredient concentration” value in [2] (incubation period 7 days), in assay [2] (incubation period 14 days) and in [2] (incubation period 21 days) was 30 ppm throughout. In addition, the “growth of the isolates” value is “still growing” in the assay with Candida parapsilosis (setting [3]); “no growth” with Candida parapsilosis (setting [4]); “still growing” in the assay on Candida tropicalis (setting [3]); “no growth” in the assay on Candida tropicalis (setting [4]); “still growing” in the assay on Candida glabrata (setting [3]); “no growth” with Candida glabrata (setting [4]). Besides, the “growth of the isolates” value in the assay with Candida albicans (setting [3]) was “still growing”; in the assay with Candida albicans (setting [4]) it was “no growth”.
